Laboratory results from ChEMBL document CHEMBL1667810, “New positive allosteric modulators of the metabotropic glutamate receptor 2 (mGluR2): identification and synthesis of N-propyl-8-chloro-6-substituted isoquinolones” (Bioorg Med Chem Lett, 2011).

Assays:
Assay type in all cases: functional, cell-based
[1] = biological target: T1, Metabotropic glutamate receptor 2 (Homo sapiens, UniProt Q14416); test: Agonist activity at human mGluR2 expressed in CHO cells at by [S35]GTPgammaS binding assay
Target sequence in this assay (Q14416 whole entry): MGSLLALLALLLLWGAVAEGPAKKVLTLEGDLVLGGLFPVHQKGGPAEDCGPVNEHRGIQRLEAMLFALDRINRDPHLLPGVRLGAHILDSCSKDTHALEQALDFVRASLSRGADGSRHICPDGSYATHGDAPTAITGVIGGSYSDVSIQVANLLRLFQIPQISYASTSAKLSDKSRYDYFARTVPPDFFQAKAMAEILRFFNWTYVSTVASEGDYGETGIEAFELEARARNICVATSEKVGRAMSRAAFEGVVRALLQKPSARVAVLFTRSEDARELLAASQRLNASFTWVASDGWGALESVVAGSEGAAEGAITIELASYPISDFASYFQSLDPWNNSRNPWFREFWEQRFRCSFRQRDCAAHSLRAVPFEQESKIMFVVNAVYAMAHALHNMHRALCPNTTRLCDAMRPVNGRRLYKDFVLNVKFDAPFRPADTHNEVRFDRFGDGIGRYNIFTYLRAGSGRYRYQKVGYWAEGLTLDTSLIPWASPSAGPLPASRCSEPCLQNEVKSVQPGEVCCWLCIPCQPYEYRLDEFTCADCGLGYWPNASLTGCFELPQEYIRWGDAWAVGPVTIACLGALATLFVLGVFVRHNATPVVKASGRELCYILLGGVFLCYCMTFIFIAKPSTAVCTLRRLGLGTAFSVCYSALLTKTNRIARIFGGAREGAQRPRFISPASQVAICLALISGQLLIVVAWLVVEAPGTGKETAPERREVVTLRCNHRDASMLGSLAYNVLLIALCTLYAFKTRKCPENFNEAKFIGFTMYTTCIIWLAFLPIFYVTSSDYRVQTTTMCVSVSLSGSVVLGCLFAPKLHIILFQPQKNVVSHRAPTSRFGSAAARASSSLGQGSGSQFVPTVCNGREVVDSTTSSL

[2] = biological target: T1, Metabotropic glutamate receptor 2; test: Agonist activity at human mGluR2 expressed in CHO cells at by [S35]GTPgammaS binding assay relative to glutamate
Target sequence in this assay (Q14416 19-872 limits assumed): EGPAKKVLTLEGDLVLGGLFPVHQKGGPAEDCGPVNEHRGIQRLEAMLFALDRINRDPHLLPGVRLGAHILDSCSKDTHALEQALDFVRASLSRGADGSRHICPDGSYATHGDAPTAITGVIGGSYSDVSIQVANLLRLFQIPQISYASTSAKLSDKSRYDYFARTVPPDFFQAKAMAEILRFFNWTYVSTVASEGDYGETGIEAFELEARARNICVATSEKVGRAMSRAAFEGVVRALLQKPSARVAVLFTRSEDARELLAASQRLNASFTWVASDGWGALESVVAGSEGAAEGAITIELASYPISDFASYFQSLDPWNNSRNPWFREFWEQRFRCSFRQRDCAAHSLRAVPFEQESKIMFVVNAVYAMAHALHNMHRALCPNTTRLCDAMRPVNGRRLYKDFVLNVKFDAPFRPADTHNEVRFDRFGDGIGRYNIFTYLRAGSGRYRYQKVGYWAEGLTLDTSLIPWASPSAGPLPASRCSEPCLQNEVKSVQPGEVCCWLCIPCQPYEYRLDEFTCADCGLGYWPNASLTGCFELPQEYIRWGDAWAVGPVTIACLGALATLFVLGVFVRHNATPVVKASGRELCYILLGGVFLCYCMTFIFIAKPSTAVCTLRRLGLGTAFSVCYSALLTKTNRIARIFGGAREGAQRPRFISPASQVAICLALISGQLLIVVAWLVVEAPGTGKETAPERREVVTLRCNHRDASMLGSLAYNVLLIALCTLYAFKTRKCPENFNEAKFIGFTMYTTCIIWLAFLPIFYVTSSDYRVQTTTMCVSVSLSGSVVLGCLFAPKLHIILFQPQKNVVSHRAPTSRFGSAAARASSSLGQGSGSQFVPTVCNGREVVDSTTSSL

[3] = biological target: T1, Metabotropic glutamate receptor 2; test: Agonist activity at human mGluR2 expressed in HEK293 cells assessed as induction of calcium release by FLIPR assay
Target sequence in this assay (Q14416 whole entry): as the sequence (Q14416 whole entry) above

Row | SMILES | EC50 [1] | Emax [2] | EC50 [3]
1 | CCCn1ccc2cc(-c3cccnc3)ccc2c1=O | 7.94 µM | 81% | –
2 | CCCn1ccc2cc(-c3ccc(OCCc4ccccc4)nc3)cc(Cl)c2c1=O | 0.631 µM | 103% | –
3 | CCCn1ccc2cc(OCc3cccnc3)cc(Cl)c2c1=O | 2.51 µM | 126% | –
4 | CCCn1ccc2cc(N3CCOCC3)cc(Cl)c2c1=O | 5.01 µM | 104% | 2.51 µM
5 | CCCn1ccc2cc(-c3ccc(Oc4ccccc4)nc3)cc(Cl)c2c1=O | 0.501 µM | 92% | –
6 | CCCn1ccc2cc(-c3ccc(N4CCOCC4)nc3)cc(Cl)c2c1=O | 0.794 µM | 84% | –
7 | CCCn1ccc2cc(-c3ccc(OC)nc3)cc(Cl)c2c1=O | 0.794 µM | 121% | –
8 | CCCn1ccc2cc(-c3ccc(OCc4cccnc4)nc3)cc(Cl)c2c1=O | 0.316 µM | 120% | –
9 | CCCn1ccc2cc(-c3ccc(Oc4ccncc4)cc3)cc(Cl)c2c1=O | 0.158 µM | 90% | –
10 | CCCn1ccc2cc(-c3ccc(OCc4ccc(Cl)nc4)cc3)cc(Cl)c2c1=O | 0.398 µM | 81% | –
11 | CCCn1ccc2cc(N3CCNCC3)cc(Cl)c2c1=O | > 10 µM | 47% | –
12 | CCCn1ccc2cc(NCc3cccnc3)cc(Cl)c2c1=O | 3.16 µM | 82% | –
13 | CCCn1ccc2cc(-c3ccncc3)cc(Cl)c2c1=O | 1.26 µM | 73% | –
14 | CCCn1ccc2cc(-c3ccc(N(C)C)nc3)cc(Cl)c2c1=O | 5.01 µM | 85% | –
15 | CCCn1ccc2cc(-c3cccnc3)cc(C#N)c2c1=O | > 50.1 µM | – | –
16 | CCCn1ccc2cc(-c3ccc(OCc4ccc(C(F)(F)F)nc4)cc3)cc(Cl)c2c1=O | 0.251 µM | 170% | –
17 | CCCn1ccc2cc(-c3cncnc3)cc(Cl)c2c1=O | 3.98 µM | 28% | –
18 | CCCn1ccc2cc(-c3ccc(OC)cc3)cc(Cl)c2c1=O | 0.316 µM | 136% | –
19 | CCCn1ccc2cc(-c3ccc(OCc4cccnc4)cc3)cc(Cl)c2c1=O | 1.26 µM | 64% | –
20 | CCCn1ccc2cc(OCCc3cccnc3)cc(Cl)c2c1=O | 0.794 µM | 47% | –
21 | CCCn1ccc2cc(-c3ccc(Oc4ccccc4)cc3)cc(Cl)c2c1=O | 2 µM | 88% | –
22 | CCCn1ccc2cc(-c3cn[nH]c3)cc(Cl)c2c1=O | 1.58 µM | 65% | –
23 | CCCn1ccc2cc(-c3cnc(OC)c(F)c3)cc(Cl)c2c1=O | 0.398 µM | 75% | –
24 | CCCn1ccc2cc(-c3cccnc3)cc(Cl)c2c1=O | 0.631 µM | 83% | –
25 | CCCn1ccc2cc(N3CCOCC3)ccc2c1=O | > 10 µM | 66% | –
26 | CCCn1ccc2cc(OCCCc3cccnc3)cc(Cl)c2c1=O | 0.631 µM | 75% | –
27 | CCCn1ccc2cc(N3CCC(O)CC3)cc(Cl)c2c1=O | 5.01 µM | 106% | –
